Patent US20250346571A1, “BICYCLIC DERIVATIVE PARP INHIBITOR AND USE THEREOF” (XIZANG HAISCO PHARMACEUTICAL CO., LTD., priority 2022, published 2025)

Legend:
PARP-1 enzyme = PARP-1 enzyme (Homo sapiens (Human), UniProt P09874); assay: PARP-1 enzyme activity test (chemical fluorescence detection kit, BPS Bioscience); type: biochemical; details: grades; read-out: PARP-1 enzyme activity IC50
Protocol: PARP-1 chemical fluorescence detection kit was purchased from BPS Bioscience. The histone solution in the kit was diluted 5× with 1×PBS, and 25 μL of the diluted histone solution was added to a microwell plate and incubated overnight at 4° C. After the incubation, the plate was washed three times with PBST (0.05% Tween-20). 100 μL of the blocking solution was added to the microwell plate and incubated at 25° C. for 90 minutes. After the incubation was completed, the plate was washed three times with PBST. 2.5 μL of compounds at different concentrations diluted in test buffer and 12.5 μL of substrate mixed solution (1.25 μL 10×PARP test buffer; 1.25 μL 10×PARP test mixed solution; 2.5 μL Activated DNA, 7.5 μL double-distilled water) were added to the microwell plate. The PARP-1 enzyme was diluted to 2 ng/μL, […] was added to the microwell plate, and the reaction system was incubated at 25° C. for 60 minutes.
After the incubation was completed, the plate was washed three times with PBST. Streptavidin-HRP was diluted 50× with a blocking solution, and 25 μL of the diluent was added to the microwell plate and incubated at 25° C. for 30 minutes. After the incubation, the plate was washed three times with PBST. ELISA ECL substrate A and substrate B were uniformly mixed at a ratio of 1:1 (v/v), 50 μL of the mixture was added to the microwell plate, and the chemiluminescence value was read.
The inhibition rate was calculated according to formula 1, where RLUsample was the readout of the compound well, RLUmax was the readout of the solvent control well, and RLUmin was the readout of the control well without the PARP-1 enzyme. Curve fitting was performed by four parameters (log(inhibitor) vs. response—Variable slope) using GraphPad Prism software, and the ICso value was calculated.
Inhibition %=(1−(RLUsample−RLUmin)/(RLUmax−RLUmin))×100% (formula 1)

MDA-MB-436 cells = assay: MDA-MB-436 cell activity test (CellTiter-Glo, 7 days); type: cell-based; details: Homo sapiens
Protocol: Breast tumor cells MDA-MB-436 were purchased from ATCC, the culture medium was Leibovitz's L-15+10% FBS, and the cells were cultured in a CO2-free incubator at 37° C. On day 1, the cells in the exponential growth phase were collected, and the cell suspension was adjusted to 4000 cells/135 μL with the culture medium. 135 μL of the cell suspension was added to each well of a 96-well cell culture plate and incubated overnight. On day 2, compounds at different concentrations were added, and the plate was placed in the incubator and incubated for 7 days. After the incubation was completed, according to operation instructions for a CellTiter-Glo kit (Promega, G7573), 75 μL of CTG solution, which was already pre-melted and equilibrated to room temperature, was added to each well, and the mixture was uniformly mixed for 2 min using a microplate shaker. The plate was placed at room temperature for 10 min, and then […] were measured using an Envision2104 plate reader (PerkinElmer). The inhibition rate was calculated using formula (1), where RLUcompound was the readout of the drug treated group, RLUcontrol was the average value of the vehicle control group, and RLUblank was the average value of the cell-free well. The IC50 value was calculated using GraphPad Prism software

[1] = Pharmacokinetic test in rats; type: in vivo, SD rats
Protocol: 3.1 Experimental animal: male SD rats, about 220 g, 6-8 weeks old, 6 rats/compound, purchased from Chengdu Ddossy Experimental Animals Co., Ltd.
3.2 Experimental design: on the day of the experiment, 30 SD rats were randomly grouped according to their body weights. The animals were fasted with water available for 12 to 14 h one day before the administration and were fed 4 h after the administration.
(§1) Before and after the administration, 0.15 ml of blood was taken from the orbit of the animals under isoflurane anesthesia and placed in an EDTAK2 centrifuge tube. The blood was centrifuged at 5000 rpm and 4° C. for 10 min to collect plasma. The blood collection time points for the intravenous administration group and intragastric administration group were 0, 5 min, 15 min, 30 min, 1 h, 2 h, 4 h, 6 h, 8 h and 24 h. The brain tissues were collected 24 hours after administration, rinsed with cold physiological saline to remove the residual blood on the surface, drained out and then homogenized. Before analysis and detection, all samples were stored at −80° C. The samples were analyzed quantitatively by LC-MS/MS.

[2] = Pharmacokinetic test in mice; type: in vivo, Balb/c mice
Protocol: 4.1 Experimental animal: male Balb/c mice, 20-25 g, 12 mice/compound, purchased from Chengdu Ddossy Experimental Animals Co., Ltd.
4.2 Experimental design: on the day of the test, 60 Balb/c mice were randomly grouped according to their body weights. The animals were fasted with water available for 12 to 14 h one day before the administration and were fed 4 h after the administration.
as §1, with “administration, 0.06 mL ofblood” for “administration, 0.15 ml of blood”, “8 h,” for “8 h”, “collected at 30 min, 2 h and 24 h after administration of compounds 12, 15 and 18, respectively. The brain tissues were collected” for “collected”, “after administration of compounds 2 and 5,” for “after administration,”

[3] = Pharmacokinetic test in monkeys; type: in vivo, cynomolgus monkeys
Protocol: 6.1 Experimental animal: male cynomolgus monkeys, 3-5 kg, 3-6 years old, 4 monkeys/compound, purchased from Suzhou Xishan Biotechnology Inc.
6.2 Test method: On the day of the experiment, 8 monkeys were randomly grouped according to their body weights. The animals were fasted with water available for 14 to 18 h one day before the administration, and were fed 4 h after the administration.
Before and after the administration, 1.0 mL of blood was taken from the limb veins and placed in an EDTAK2 centrifuge tube. The blood was centrifuged at 5000 rpm and 4° C. for 10 min to collect plasma. The blood collection time points for the intravenous administration group were 0, 5 min, 15 min, 30 min, 1 h, 2 h, 4 h, 6 h, 8 h, 10 h, 12 h, 24 h and 48 h. Before analysis and detection, all samples were stored at −80° C. The samples were analyzed quantitatively by LC-MS/MS.

[4] = male, SD, rat, iv, rats, i.v. 2.5 mg/kg, plasma
[5] = male, Balb/c, mouse, iv, mice, i.v. 2.5 mg/kg, plasma
[6] = male, cynomolgus monkey, iv, monkeys, i.v. (0.5 mg/kg), plasma

Sequence of PARP-1 enzyme (P09874 whole entry): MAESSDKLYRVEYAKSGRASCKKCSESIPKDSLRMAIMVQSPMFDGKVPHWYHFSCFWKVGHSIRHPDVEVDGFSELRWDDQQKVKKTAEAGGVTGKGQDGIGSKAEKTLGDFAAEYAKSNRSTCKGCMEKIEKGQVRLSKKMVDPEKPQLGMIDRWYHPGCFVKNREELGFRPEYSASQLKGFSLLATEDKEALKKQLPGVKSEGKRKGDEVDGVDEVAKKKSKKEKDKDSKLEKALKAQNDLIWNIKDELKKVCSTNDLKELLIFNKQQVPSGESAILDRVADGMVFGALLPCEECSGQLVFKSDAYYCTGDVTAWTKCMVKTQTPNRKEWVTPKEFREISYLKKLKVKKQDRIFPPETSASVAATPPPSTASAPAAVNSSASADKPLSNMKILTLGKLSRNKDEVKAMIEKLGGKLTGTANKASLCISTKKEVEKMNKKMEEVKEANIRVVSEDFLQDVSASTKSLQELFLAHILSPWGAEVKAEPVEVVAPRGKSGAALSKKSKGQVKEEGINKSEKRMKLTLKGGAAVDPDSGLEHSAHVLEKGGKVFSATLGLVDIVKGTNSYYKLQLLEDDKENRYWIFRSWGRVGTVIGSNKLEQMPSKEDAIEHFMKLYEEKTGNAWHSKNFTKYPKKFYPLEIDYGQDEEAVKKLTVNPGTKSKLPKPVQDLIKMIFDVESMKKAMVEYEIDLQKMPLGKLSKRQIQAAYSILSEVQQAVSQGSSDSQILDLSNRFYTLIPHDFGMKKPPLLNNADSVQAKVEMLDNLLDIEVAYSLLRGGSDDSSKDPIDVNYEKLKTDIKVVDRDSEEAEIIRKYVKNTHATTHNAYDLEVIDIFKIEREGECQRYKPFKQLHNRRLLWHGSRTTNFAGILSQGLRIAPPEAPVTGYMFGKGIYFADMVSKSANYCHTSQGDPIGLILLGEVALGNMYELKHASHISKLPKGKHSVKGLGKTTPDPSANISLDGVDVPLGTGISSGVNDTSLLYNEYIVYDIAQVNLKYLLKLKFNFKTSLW

IC50 (PARP-1 enzyme): < 5 nM
IC50 (MDA-MB-436 cells; MDA-MB-436, 168 h, 7 days incubation): 10.2 nM
pharmacokinetic characteristics in rats ([1]; conclusion in words): good pharmacokinetic characteristics
Kp at 24 h ([1]; male, SD, rat, brain/plasma, intravenous, 2.5 mg/kg, rats, 24 h after administration, read-out: Brain/Plasma Ratio (24 h)): 1.5
AUC(0-t) [1, 4]: 14500 ± 4760 ng·h/mL
clearance [1, 4]: 3.13 ± 1.2 mL/min/kg
Vd ([1]; male, SD, rat, iv, rats, i.v. 2.5 mg/kg, plasma, read-out: Vdss): 0.631 ± 0.12 L/kg
bioavailability ([1]; male, SD, rat, plasma, po, rats, i.g. 10 mg/kg): ≥ 98%
AUC(0-t) ([1]; male, SD, rat, po, rats, i.g. 10 mg/kg, plasma): 63300 ± 19600 ng·h/mL
pharmacokinetic characteristics in mice ([2]; conclusion in words): good pharmacokinetic characteristics
AUC(0-t) [2, 5]: 19000 ± 3590 ng·h/mL
clearance [2, 5]: 2.16 ± 0.31 mL/min/kg
Vd ([2]; male, Balb/c, mouse, iv, mice, i.v. 2.5 mg/kg, plasma, read-out: Vdss): 0.42 ± 0.017 L/kg
bioavailability ([2]; male, Balb/c, mouse, plasma, po, mice, i.g. 10 mg/kg): ≥ 98%
AUC(0-t) ([2]; male, Balb/c, mouse, po, mice, i.g. 10 mg/kg, plasma): 80800 ng·h/mL
pharmacokinetic characteristics in monkeys ([3]; conclusion in words): good pharmacokinetic characteristics
AUC(0-t) [3, 6]: 5470 ± 422 ng·h/mL
clearance [3, 6]: 1.5 ± 0.13 mL/min/kg
Vd ([3]; male, cynomolgus monkey, iv, monkeys, i.v. (0.5 mg/kg), plasma, read-out: Vdss): 0.419 ± 0.02 L/kg
bioavailability ([3]; male, cynomolgus monkey, plasma, po, monkeys, i.g. (3 mg/kg)): 63.2 ± 6.1%
AUC(0-t) ([3]; male, cynomolgus monkey, po, monkeys, i.g. (3 mg/kg), plasma): 20700 ± 1990 ng·h/mL
Structure (SMILES): O=C(NC1CC1)c1ccc(N2CCN(Cc3ccc4nc(C(F)F)c(=O)[nH]c4c3F)CC2)c(F)n1 [Compound 12, N-cyclopropyl-5-(4-((2-(difluoromethyl)-5-fluoro-3-oxo-3,4-dihydroquinoxalin-6-yl)methyl)piperazin-1-yl)-6-fluoropicolinamide]
inhibition at 10 µM (MDA-MB-436 cells; 10 μM, MDA-MB-436 cells, read-out: Max inh. % 10 μM): 74.5%
